ChEMBL document CHEMBL3991601, “The target landscape of clinical kinase drugs” (Science, 2017)
Where a name gives a salt, the structure may show the parent alone. The source made the active and inactive calls. Rule as the data show it, for most assays here: actives have a measured Kd and inactives only a lower limit.

Legend:
[1] = target: T1, Discoidin domain-containing receptor 2 (Homo sapiens, UniProt Q16832)
T1 sequence (Q16832 whole entry): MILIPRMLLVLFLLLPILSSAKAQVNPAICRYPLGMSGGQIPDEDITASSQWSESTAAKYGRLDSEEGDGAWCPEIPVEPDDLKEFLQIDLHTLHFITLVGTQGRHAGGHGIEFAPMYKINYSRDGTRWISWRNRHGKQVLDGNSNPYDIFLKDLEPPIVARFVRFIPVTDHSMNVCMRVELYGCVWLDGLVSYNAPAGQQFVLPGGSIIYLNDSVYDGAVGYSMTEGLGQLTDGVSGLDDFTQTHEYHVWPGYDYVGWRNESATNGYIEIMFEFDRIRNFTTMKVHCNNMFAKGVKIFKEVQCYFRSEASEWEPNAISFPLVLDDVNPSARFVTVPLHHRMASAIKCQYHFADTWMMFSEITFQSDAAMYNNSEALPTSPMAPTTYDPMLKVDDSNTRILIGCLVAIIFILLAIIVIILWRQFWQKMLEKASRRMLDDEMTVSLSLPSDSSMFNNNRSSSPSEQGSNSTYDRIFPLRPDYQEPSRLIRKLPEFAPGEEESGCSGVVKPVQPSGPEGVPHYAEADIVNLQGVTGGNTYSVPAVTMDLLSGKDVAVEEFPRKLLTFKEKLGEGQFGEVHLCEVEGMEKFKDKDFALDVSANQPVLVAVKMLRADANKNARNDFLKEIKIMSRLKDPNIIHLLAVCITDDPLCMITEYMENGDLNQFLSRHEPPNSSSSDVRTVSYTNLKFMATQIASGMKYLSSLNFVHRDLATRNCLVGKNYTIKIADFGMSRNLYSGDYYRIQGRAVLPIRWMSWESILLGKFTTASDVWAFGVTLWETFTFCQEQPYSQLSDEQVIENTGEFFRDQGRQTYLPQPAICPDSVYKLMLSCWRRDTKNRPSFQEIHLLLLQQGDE

[2] = target: Cyclin-dependent kinase 5 (Homo sapiens, UniProt Q00535)
TGF-beta receptor type-2 = TGF-beta receptor type-2 (Homo sapiens, UniProt P37173)
[3] = target: T2, Glycogen phosphorylase, liver form (Homo sapiens, UniProt P06737); format: subcellular, K-562, COLO 205, SK-N-BE(2) and MV-4-11, Cell lysate; settings: read-out: Kd apparent
T2 sequence (P06737 whole entry): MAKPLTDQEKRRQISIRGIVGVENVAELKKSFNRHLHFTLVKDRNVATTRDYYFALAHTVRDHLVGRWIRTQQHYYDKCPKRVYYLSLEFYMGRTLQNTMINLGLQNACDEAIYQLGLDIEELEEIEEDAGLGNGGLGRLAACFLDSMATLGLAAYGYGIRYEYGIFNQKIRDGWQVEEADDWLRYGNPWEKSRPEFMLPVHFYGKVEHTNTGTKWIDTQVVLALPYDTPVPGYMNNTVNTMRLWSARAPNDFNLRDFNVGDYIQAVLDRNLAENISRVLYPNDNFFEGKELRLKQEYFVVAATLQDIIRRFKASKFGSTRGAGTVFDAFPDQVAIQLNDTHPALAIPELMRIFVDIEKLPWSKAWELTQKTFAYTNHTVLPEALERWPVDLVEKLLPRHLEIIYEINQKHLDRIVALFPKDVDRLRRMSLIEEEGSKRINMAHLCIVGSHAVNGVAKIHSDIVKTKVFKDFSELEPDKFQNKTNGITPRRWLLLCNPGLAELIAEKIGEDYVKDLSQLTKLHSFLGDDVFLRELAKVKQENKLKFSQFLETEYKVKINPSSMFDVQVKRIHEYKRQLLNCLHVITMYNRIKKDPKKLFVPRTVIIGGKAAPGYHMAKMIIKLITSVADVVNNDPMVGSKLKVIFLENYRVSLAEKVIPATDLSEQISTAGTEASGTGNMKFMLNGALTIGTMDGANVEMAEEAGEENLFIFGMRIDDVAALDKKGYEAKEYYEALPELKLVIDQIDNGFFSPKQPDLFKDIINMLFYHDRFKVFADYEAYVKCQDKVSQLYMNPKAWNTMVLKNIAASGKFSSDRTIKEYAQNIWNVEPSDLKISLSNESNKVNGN

[4] = target: T3, Receptor-type tyrosine-protein kinase FLT3 (Homo sapiens, UniProt P36888)
T3 sequence (P36888 whole entry): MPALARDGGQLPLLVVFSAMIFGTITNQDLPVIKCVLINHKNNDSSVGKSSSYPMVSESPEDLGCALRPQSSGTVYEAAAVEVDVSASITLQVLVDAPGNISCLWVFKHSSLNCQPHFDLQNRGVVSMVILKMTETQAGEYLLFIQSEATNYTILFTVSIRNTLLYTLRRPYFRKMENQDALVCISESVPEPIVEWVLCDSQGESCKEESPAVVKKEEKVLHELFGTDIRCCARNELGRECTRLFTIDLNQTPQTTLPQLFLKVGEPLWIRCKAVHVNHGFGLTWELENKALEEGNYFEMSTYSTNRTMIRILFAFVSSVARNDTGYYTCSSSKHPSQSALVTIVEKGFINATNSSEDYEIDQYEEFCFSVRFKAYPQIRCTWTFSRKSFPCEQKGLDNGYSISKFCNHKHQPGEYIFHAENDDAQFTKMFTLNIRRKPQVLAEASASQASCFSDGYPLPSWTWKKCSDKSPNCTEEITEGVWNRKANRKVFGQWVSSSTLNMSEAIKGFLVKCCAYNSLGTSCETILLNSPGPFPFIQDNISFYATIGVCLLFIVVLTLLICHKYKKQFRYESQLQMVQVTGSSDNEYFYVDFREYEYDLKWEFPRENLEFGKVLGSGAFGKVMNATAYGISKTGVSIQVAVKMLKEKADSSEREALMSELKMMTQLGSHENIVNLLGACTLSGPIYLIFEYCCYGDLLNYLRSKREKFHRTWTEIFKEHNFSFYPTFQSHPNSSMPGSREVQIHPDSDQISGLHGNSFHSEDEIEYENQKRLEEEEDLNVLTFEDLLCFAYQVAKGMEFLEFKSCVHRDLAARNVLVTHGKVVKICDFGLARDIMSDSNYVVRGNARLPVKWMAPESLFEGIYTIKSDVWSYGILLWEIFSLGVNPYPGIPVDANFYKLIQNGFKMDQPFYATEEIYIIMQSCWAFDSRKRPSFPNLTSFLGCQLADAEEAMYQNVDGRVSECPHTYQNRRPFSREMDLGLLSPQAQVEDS

[5] = target: Rho-associated protein kinase 1 (Homo sapiens, UniProt Q13464)
Also: in the data inactive means no Kd found up to 30 µM.

Chain of Cyclin-dependent kinase 5 (Q00535 whole entry): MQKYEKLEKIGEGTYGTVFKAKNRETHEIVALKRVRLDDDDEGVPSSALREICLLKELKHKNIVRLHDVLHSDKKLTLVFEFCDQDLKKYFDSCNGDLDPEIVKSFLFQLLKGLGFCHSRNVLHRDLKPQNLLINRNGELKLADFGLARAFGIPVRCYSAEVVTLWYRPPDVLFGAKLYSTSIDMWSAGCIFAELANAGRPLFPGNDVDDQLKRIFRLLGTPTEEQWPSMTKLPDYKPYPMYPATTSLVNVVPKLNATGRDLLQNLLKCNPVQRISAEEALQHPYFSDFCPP
Chain of TGF-beta receptor type-2 (P37173 whole entry): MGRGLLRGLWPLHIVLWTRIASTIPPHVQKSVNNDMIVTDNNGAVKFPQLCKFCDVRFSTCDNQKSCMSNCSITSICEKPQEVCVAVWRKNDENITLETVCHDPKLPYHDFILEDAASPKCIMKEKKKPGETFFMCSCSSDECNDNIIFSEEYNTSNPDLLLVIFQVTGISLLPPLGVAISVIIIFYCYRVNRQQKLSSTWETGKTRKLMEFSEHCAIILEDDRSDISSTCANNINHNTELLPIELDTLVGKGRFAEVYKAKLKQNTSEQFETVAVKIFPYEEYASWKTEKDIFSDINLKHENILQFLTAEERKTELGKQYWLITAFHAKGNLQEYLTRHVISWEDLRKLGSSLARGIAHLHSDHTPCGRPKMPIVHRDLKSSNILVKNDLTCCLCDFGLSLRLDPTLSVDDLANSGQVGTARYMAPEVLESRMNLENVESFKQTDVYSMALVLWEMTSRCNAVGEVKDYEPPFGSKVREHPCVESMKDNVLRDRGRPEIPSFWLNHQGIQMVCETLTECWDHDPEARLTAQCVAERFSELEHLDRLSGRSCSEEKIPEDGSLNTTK
Chain of Rho-associated protein kinase 1 (Q13464 whole entry): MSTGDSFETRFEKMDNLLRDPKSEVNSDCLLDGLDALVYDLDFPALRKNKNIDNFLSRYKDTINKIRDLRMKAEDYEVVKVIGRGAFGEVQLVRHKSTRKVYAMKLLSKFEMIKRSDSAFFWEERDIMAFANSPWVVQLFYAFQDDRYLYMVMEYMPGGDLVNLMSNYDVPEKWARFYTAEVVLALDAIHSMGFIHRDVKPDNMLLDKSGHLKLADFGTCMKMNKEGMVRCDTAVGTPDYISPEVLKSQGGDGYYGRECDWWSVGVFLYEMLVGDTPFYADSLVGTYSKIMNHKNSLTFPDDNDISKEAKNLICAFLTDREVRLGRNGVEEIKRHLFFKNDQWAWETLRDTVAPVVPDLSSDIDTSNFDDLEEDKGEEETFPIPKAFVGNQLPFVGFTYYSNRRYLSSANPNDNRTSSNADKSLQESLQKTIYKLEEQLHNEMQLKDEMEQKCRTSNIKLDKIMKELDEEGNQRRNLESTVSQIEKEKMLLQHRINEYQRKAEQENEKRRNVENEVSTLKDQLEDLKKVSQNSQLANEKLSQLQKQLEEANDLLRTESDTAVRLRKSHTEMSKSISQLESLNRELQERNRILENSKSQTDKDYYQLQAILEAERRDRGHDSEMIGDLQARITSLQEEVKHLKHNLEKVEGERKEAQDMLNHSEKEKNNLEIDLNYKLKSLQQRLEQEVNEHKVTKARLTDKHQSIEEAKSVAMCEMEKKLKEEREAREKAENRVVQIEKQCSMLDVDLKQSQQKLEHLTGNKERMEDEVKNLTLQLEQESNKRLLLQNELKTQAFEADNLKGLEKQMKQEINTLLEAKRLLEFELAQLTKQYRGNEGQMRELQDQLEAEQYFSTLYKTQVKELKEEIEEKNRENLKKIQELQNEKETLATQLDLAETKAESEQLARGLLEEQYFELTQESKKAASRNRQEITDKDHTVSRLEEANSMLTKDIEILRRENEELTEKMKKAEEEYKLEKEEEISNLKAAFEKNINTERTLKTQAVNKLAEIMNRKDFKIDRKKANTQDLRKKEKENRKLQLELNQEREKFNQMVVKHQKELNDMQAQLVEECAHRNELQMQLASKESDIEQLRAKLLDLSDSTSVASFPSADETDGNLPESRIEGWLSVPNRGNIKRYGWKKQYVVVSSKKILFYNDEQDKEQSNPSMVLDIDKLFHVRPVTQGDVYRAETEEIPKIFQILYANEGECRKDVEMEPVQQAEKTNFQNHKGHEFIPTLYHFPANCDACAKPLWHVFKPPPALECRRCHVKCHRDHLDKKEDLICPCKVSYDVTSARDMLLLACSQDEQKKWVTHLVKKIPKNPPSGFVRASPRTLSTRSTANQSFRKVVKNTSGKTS

Compound	Kd [1]	Kd [2]	Kd (TGF-beta receptor type-2)	Kd [3]	Kd [4]	Kd [5]
C[C@@H](Oc1cc(C(=O)Nc2ccc(C(=O)N3CCN(C)CC3)cc2)nnc1N)c1c(Cl)ccc(F)c1Cl	> 30 µM (inactive)	> 30 µM (inactive)	> 30 µM (inactive)	> 30 µM (inactive)	> 30 µM (inactive)	> 30 µM (inactive)
CC(=O)c1cnc2ccc(-c3cc(Cl)c(O)c(Cl)c3)nc2c1N[C@H]1CC[C@H](CN(C)C)CC1	2.28 µM (active)	0.253 µM (active)	> 30 µM (inactive)	> 30 µM (inactive)	> 30 µM (inactive)	> 30 µM (inactive)
C=CC(=O)N1CCC[C@H](n2c(=O)n(-c3ccc(Oc4ccccc4)cc3)c3c(N)ncnc32)C1	> 30 µM (inactive)	> 30 µM (inactive)	> 30 µM (inactive)	> 30 µM (inactive)	> 30 µM (inactive)	> 30 µM (inactive)
Cc1nc2cc(-c3nn(C(C)C)c4ncnc(N)c34)ccc2o1	0.139 µM (active)	> 30 µM (inactive)	> 30 µM (inactive)	> 30 µM (inactive)	7.04 µM (active)	> 30 µM (inactive)
COCc1c(-c2ccc(NC(=O)Nc3cc(C(F)(F)F)ccc3F)c(F)c2)c2c(N)ncnn2c1CN1CCOCC1	3.25 µM (active)	> 30 µM (inactive)	> 30 µM (inactive)	> 30 µM (inactive)	0.465 µM (active)	> 30 µM (inactive)
Nc1ncnc2c1c(-c1cccc(OCc3ccccc3)c1)cn2[C@H]1C[C@@H](CN2CCC2)C1 [AEW-541]	> 30 µM (inactive)	> 30 µM (inactive)	> 30 µM (inactive)	> 30 µM (inactive)	> 30 µM (inactive)	> 30 µM (inactive)
Cc1csc(-c2nnc(Nc3ccc(Oc4ncccc4-c4ccnc(N)n4)cc3)c3ccccc23)c1 [AMG-900]	0.298 µM (active)	> 30 µM (inactive)	> 30 µM (inactive)	> 30 µM (inactive)	> 30 µM (inactive)	> 30 µM (inactive)
C=CC(=O)Nc1cc2c(Nc3ccc(F)c(Cl)c3)ncnc2cc1C#CC(C)(C)N1CCN(C)CC1 [AV-412 FREE BASE]	> 30 µM (inactive)	> 30 µM (inactive)	> 30 µM (inactive)	> 30 µM (inactive)	> 30 µM (inactive)	> 30 µM (inactive)
COc1cc([C@@H]2c3cc4c(cc3[C@H](O)[C@H]3COC(=O)[C@@H]23)OCO4)cc(OC)c1OC [AXL-1717]	> 30 µM (inactive)	> 30 µM (inactive)	> 30 µM (inactive)	> 30 µM (inactive)	> 30 µM (inactive)	> 30 µM (inactive)
Cc1cc(C(=O)NOCCO)c(Nc2ccc(I)cc2F)n(C)c1=O [AZD-8330]	> 30 µM (inactive)	> 30 µM (inactive)	> 30 µM (inactive)	> 30 µM (inactive)	> 30 µM (inactive)	> 30 µM (inactive)
Cn1cnc2c(F)c(Nc3ccc(Br)cc3F)c(C(=O)NOCCO)cc21 [BINIMETINIB]	> 30 µM (inactive)	> 30 µM (inactive)	> 30 µM (inactive)	> 30 µM (inactive)	> 30 µM (inactive)	> 30 µM (inactive)
CCn1c(C(=O)N(C2CC2)C2CC2)cc2c3c(ncn3C)c(Nc3cc(C)n(C)n3)nc21 [BMS-911543]	> 30 µM (inactive)	> 30 µM (inactive)	> 30 µM (inactive)	> 30 µM (inactive)	> 30 µM (inactive)	> 30 µM (inactive)
COc1cc2ncnc(Oc3cccc(NC(=O)Nc4cc(C(C)(C)C(F)(F)F)on4)c3)c2cc1OC [CEP-32496]	0.183 µM (active)	> 30 µM (inactive)	> 30 µM (inactive)	> 30 µM (inactive)	0.55 µM (active)	> 30 µM (inactive)
Cc1cc(Nc2ncc(Cl)c(Nc3ccccc3S(=O)(=O)C(C)C)n2)c(OC(C)C)cc1C1CCNCC1 [CERITINIB]	> 30 µM (inactive)	> 30 µM (inactive)	> 30 µM (inactive)	> 30 µM (inactive)	4.26 µM (active)	> 30 µM (inactive)
COc1c(OCCCN2CCOCC2)ccc2c1N=C(NC(=O)c1cnc(N)nc1)N1CCN=C21 [COPANLISIB]	> 30 µM (inactive)	> 30 µM (inactive)	> 30 µM (inactive)	> 30 µM (inactive)	> 30 µM (inactive)	> 30 µM (inactive)
COCC(=O)NC/C=C/c1ccc2ncnc(Nc3ccc(Oc4ccc(C)nc4)c(C)c3)c2c1 [CP-724714]	> 30 µM (inactive)	> 30 µM (inactive)	> 30 µM (inactive)	> 30 µM (inactive)	> 30 µM (inactive)	> 30 µM (inactive)
C#Cc1cccc(Nc2ncnc3cc(OC)c(OCCCCCCC(=O)NO)cc23)c1 [CUDC-101]	> 30 µM (inactive)	> 30 µM (inactive)	> 30 µM (inactive)	> 30 µM (inactive)	> 30 µM (inactive)	> 30 µM (inactive)
CCS(=O)(=O)N1CCN(c2ccc(Nc3ncc(C(N)=O)c(NC4CC4)n3)cc2)CC1 [Cerdulatinib Hydrochloride]	> 30 µM (inactive)	> 30 µM (inactive)	> 30 µM (inactive)	> 30 µM (inactive)	1.5 µM (active)	> 30 µM (inactive)
Cc1nc2cc(-n3ncc(C(=O)c4cc5ccccc5[nH]4)c3N)ccc2[nH]1 [FGFR INHIBITOR DEBIO 1347]	> 30 µM (inactive)	> 30 µM (inactive)	> 30 µM (inactive)	> 30 µM (inactive)	> 30 µM (inactive)	> 30 µM (inactive)
CCS(=O)(=O)c1cccc(-c2cc(C(=O)NC3CCN(C)CC3)c(C)c3[nH]c4ncc(C)cc4c23)c1 [TAK-901]		> 30 µM (inactive)	> 30 µM (inactive)	> 30 µM (inactive)	0.554 µM	> 30 µM (inactive)
